Data set [1] can be described thus: Micelle formation of tetracaine. In kind it is physicochemical. The method, then:
Tetracaine is a much less electrophilic molecule than metoclopramide since it is positively charged at its tertiary amine group, but the rest of the molecule is very hydrophobic. Concentrations of tetracaine higher than 20 mg/ml (75 mM) lead to the formation of micelles, due to the highly surfactant nature of the drug. Lower concentrations of tetracaine may lead to a better showing of the effect of the enhancer.

For data set [2] the following is noted: for effect on skin resistance / resistivity (in words) / effect on metoclopramide mass flux (in words): compared with control without enhancer; for Normalized Cell Voltage (after 5 hrs) / Normalized Metoclopramide Mass Flux (after 5 hrs): metoclopramide HCl 100 mg/ml, 100 μA/cm^2, 32° C.; for enhancer performance (in words): metoclopramide electrotransport.
The conditions of data set [3]: hydrophile-lipophile balance of the enhancer; cited from earlier work.
For data set [4] the following is noted: for Normalized Cell Voltage (after 5 hrs): relative to no ethanol (1.00). The method, then:
(§1) Each floating epidermis was stretched essentially flat.
The prior art teaches that ethanol can be used to enhance both passive and electrically-assisted transdermal drug delivery. […] The agent utilized, metoclopramide HCl, was placed in the donor compartment at about 100 mg metoclopramide/ml, and Dulbecco's phosphate buffered saline (pH 7) was placed in the receptor compartment. The system was maintained at 32° C. and a constant electric current of 100 μA/cm^2 was applied throughout the procedure.

For data set [5] the following is noted: tetracaine; electrotransport pretreatment with the enhancer.
Method: Solutions of the drug to be transported through the skin disks 42, and each of the electrotransport enhancers to be tested were placed at different times in the anodic donor compartment 44. Dulbecco's phosphate buffered saline (approximately 0.1 5N NaCl, with minor amounts of other ions, pH 7.0) was placed in the cathodic receptor compartment 46. The skin resistance was calculated from the voltages applied by the galvanostat according to Ohm's law:
The electrotransport of tetracaine was also conducted with surfactant flux enhancers, such as decyl methyl sulfoxide.
Data set [6] can be described thus: Electrotransport of sodium ketoprofen with enhancer (Example 5). Format: in vitro ADME, human. The following applies: for effect of 20% ethanol solvent on enhancer performance (in words) / effect on ketoprofen mass flux (in words) / effect on skin conductivity (in words): 100 mM ketoprofen; for effect of 20% ethanol solvent on enhancer performance (in words): 20 wt % ethanol/water; for effect on ketoprofen mass flux (in words) / effect on skin conductivity (in words): water alone. On the procedure: as §1
Sodium ketoprofen in aqueous solution forms an univalent anionic anti-inflammatory agent. The electrotransport delivery of 100 mM ketoprofen in the presence of cationic and non-ionic surfactants was tested under the conditions described in Example 1. The enhancers used were laurylamine and dimethyl lauramide. Two sets of tests were conducted. The first in aqueous solution, and the second in 20 wt % ethanol/water solution.

A short description of data set [7]: Electrotransport of di-sodium cromolyn with enhancer (Example 4). In kind it is in vitro ADME, human. The following applies: concentration not given in b26; for lowering of skin resistivity: cromolyn donor, dodecylpyrrolidone 100 mM; for increase of cromolyn flux: dodecylpyrrolidone 100 mM in donor.
Source text: as §1
Di-sodium cromolyn, when in aqueous solution, forms a divalent anion. The experimental conditions were as described in Example 1, except the cromolyn donor solution was placed in the cathodic compartment 46 and the Dulbecco's phosphate buffered saline receptor solution was placed in the anodic compartment 44; and the stratum corneum layer of skin disk 42 was mounted to face the cathodic compartment 46.
Dodecylpyrrolidone, when added to the donor solution, at a concentration of 100 mM, increased cromolyn flux by 50 to 100% and lowered skin resistivity by 30 to 70%.

Setting [8] is: relative to control without enhancer (1.00), enhancer 10 mM.
Setting [9] is: relative to control (1.00), dodecylpyrrolidone 100 mM.

Several values for one entry are separate records, joined by “and”; a condition that tells them apart may be missing. Identical values can stand only once. Counter-ions that a name gives are not always drawn. Like-named read-outs stand apart in the source and are kept apart here.

Data on ten molecules can be found in patent publication US5668170A, “Composition and method enhancing transdermal electrotransport agent delivery” (ALZA Corporation, priority 1996, dated 1997).

For the molecule `CCCCNc1ccc(C(=O)OCCN(C)C)cc1` [tetracaine HCl], the “concentration leading to the formation of micelles” value in data set [1] is “higher than 20 mg/ml and > 75 mM”.
Consider “lauramphocarboxy propionate [Lauramphocarboxypropionate, reference compound]”, for which the “effect on skin resistance / resistivity (in words)” value in data set [2] (metoclopramide HCl donor) is “did not appear to affect”. Besides, the “Normalized Cell Voltage (after 5 hrs)” value in data set [2] (setting [8]) was “.93”. Further, the “HLB No.” value in data set [3] is 54.
For `CCO` [Ethanol, ethanol], the “effect on mass flux of metoclopramide (in words)” value in data set [4] is “decreased the mass flux of metoclopramide”. Moreover, the “effect on skin conductivity (in words)” value in data set [4] (10 to 30 wt % ethanol) was “decreased the mass flux of metoclopramide and the skin conductivity”. The results for the “Normalized Cell Voltage (after 5 hrs)” value in data set [4] (ethanol 10 wt %), in data set [4] (ethanol 20 wt %) and in data set [4] (ethanol 30 wt %) were 0.82, 0.70 and 0.78, respectively.
In the case of `CCCCCCCCCC[S+](C)[O-]` (stereo not shown) [n-Decyl methyl sulfoxide], the “Normalized Cell Voltage (after 5 hrs)” value in data set [2] (setting [8]) was “.44”. In addition, in data set [5], the “decrease of cell voltage (in words)” value is reported as “highly beneficial”. The “HLB No.” value in data set [3] is given as 32.
Consider `CCCCCCCCCCCC(=O)N(C)C` [Dimethyl lauramide], for which, in data set [6], the “effect of 20% ethanol solvent on enhancer performance (in words)” value is “improved the performance of both enhancers”; the “effect on ketoprofen mass flux (in words)” value is “increased mass flux”; the “effect on skin conductivity (in words)” value is “increased mass flux and skin conductivity”. The “effect on ketoprofen flux and conductivity (in words)” value in data set [6] (dimethyl lauramide added to ketoprofen, general description) is “increase in both flux and conductivity”. Further, the “effect on metoclopramide mass flux (in words)” value in data set [2] is on record as “almost doubling of the amount of the drug delivered”. The “skin resistance relative to control” value in data set [2] (metoclopramide HCl donor, dimethyl lauramide added) is “about one-half that of the control”. In addition, in data set [2] (setting [8]), the “Normalized Cell Voltage (after 5 hrs)” value is listed as “.45” and the “Normalized Metoclopramide Mass Flux (after 5 hrs)” value is listed as 1.87. Moreover, the “Normalized Cell Voltage (after 5 hrs)” value in data set [2] (relative to control without enhancer (1.00), enhancer 10 mM, listed as dimethyl lauramide) is listed as 0.45. For the same molecule, the “HLB No.” value in data set [3] was 8.
Turning to `CCCCCCCCCCCCOS(=O)(=O)[O-].[Na+]` [Sodium lauryl sulfate], in data set [2], the “effect on metoclopramide mass flux (in words)” value is reported as “enhanced mass flux” and the “enhancer performance (in words)” value is recorded as “superior characteristics”. In data set [2] (setting [8]), the “Normalized Cell Voltage (after 5 hrs)” value is on record as “.76” and the “Normalized Metoclopramide Mass Flux (after 5 hrs)” value was 1.64. The “HLB No.” value in data set [3] is on record as 40.
For `CCCCCCCCCCCCN` [Lauryl amine], in data set [6], the “effect of 20% ethanol solvent on enhancer performance (in words)” value is reported as “improved the performance of both enhancers”; the “effect on ketoprofen mass flux (in words)” value is on record as “increased mass flux”; the “effect on skin conductivity (in words)” value was “increased mass flux and skin conductivity”. Besides, the “effect on metoclopramide mass flux (in words)” value in data set [2] was “significantly decreased the flux”. Moreover, in data set [2] (setting [8]), the “Normalized Cell Voltage (after 5 hrs)” value was “.22” and the “Normalized Metoclopramide Mass Flux (after 5 hrs)” value is recorded as 0.136. Moreover, the “HLB No.” value in data set [3] is 11.
With “Sorbitan monolaurate [reference compound]”, the “effect on skin resistance / resistivity (in words)” value in data set [2] (metoclopramide HCl donor) is recorded as “fail to have a significant effect”. Also, the “Normalized Cell Voltage (after 5 hrs)” value in data set [2] (setting [8]) is given as “.98”. Moreover, the “HLB No.” value in data set [3] is recorded as 8.6.
For the molecule `CCCCCCCCCCCCOC(=O)C(C)O` (stereo not shown) [Lauryl lactate, reference compound], the “effect on skin resistance / resistivity (in words)” value in data set [2] (metoclopramide HCl donor) is “reduced skin resistivity”. Besides, in data set [2] (setting [8]), the “Normalized Cell Voltage (after 5 hrs)” value is recorded as “.92”. The “HLB No.” value in data set [3] is recorded as 4.7.
As for `CCCCCCCCCCCCN1CCCC1=O` [Dodecyl pyrrolidone], in data set [7] (listed as Dodecylpyrrolidone), the “lowering of skin resistivity” value is reported as 30 to 70% and the “increase of cromolyn flux” value is 50 to 100%. Further, in data set [7] (listed as dodecyl pyrrolidone), the “lowering of skin resistivity” value is given as “more than 30%” and the “increase of cromolyn flux” value was “more than 50%”. Also, the “enhancer performance (in words)” value in data set [2] (listed as dodecyl pyrrolidone) is recorded as “superior characteristics”. Moreover, the “enhancer performance (in words)” value in data set [2] (listed as dodecylpyrrolidone) is “very effective enhancers”. In addition, in data set [2] (setting [9]), the “Normalized Cell Voltage (after 5 hrs)” value was “.35” and the “Normalized Metoclopramide Mass Flux (after 5 hrs)” value is 1.68. Also, in data set [3], the “HLB No.” value is recorded as 8.
